Measured values as given in patent US10322087B2, “Targeted liposomal delivery of cGMP analogues” (priority 2015, dated 2019).
“Also recorded” adds a separate entry of the source.

Columns and labels:
[1] = target: PKG1α (Homo sapiens, UniProt Q13976); experiment: Inhibitory constants for DF003, PKG1α; assay type: biochemical
Description: (§1) The active compound DF003 is an analogue of cGMP, blocking PKG activity with high specificity. This is particularly true for the PKG1α and PKG1β isoforms, while PKG2 is less well inhibited. The inhibitory constants for the two other potential targets CNGC and protein kinase A (PKA) isoforms 1 and 2 are 2-3 log units higher (Table 2) than those for PKG isoforms. cGMP and its analogues are targeting PKG and CNGC but could potentially also interfere with PKA, PDE or even HCN channel activity. The table gives the inhibitory constants (Ki) of DF003 for these targets and (where available) the IC50 values.

[2] = target: PKG1β (Homo sapiens, UniProt Q13976); experiment: Inhibitory constants for DF003, PKG1β; assay type: biochemical
Description: as §1

[3] = target: PKG2 (Homo sapiens, UniProt Q13237); experiment: Inhibitory constants for DF003, PKG2; assay type: biochemical
Description: as §1

[4] = tested on: CNGC; experiment: Inhibitory constants for DF003, CNGC; assay type: biochemical
Description: as §1

[5] = target: PKA1; experiment: Inhibitory constants for DF003, PKA1; assay type: biochemical
Description: as §1

[6] = target: PKA2; experiment: Inhibitory constants for DF003, PKA2; assay type: biochemical
Description: as §1

[7] = target: PDE1B (Homo sapiens, UniProt Q01064); experiment: Inhibitory constants for DF003, PDE1B; assay type: biochemical
Description: as §1

[8] = target: PDE2 (Homo sapiens, UniProt O00408); experiment: Inhibitory constants for DF003, PDE2; assay type: biochemical
Description: as §1

[9] = target: PDE4; experiment: Inhibitory constants for DF003, PDE4; assay type: biochemical
Description: as §1

[10] = target: PDE5 (Homo sapiens, UniProt O76074); experiment: Inhibitory constants for DF003, PDE5; assay type: biochemical
Description: as §1

[11] = target: PDE10 (Homo sapiens, UniProt Q9Y233); experiment: Inhibitory constants for DF003, PDE10; assay type: biochemical
Description: as §1

[12] = tested on: rd1 photoreceptor-like cells; experiment: Primary retinal cell culture, cell death (Ethidium homodimer), rd1; assay type: cell-based, mouse
Description: (§2) Different doses of DF003 and LP-DF003 were tested in vitro on a primary culture of retinal cells derived from the rd1 mouse model. About 20-30% of the primary cells can be differentiated into rod photoreceptors (Demontis et al. 2012, PLoS One. 7, e33338; Giordano et al. 2007, Mol. Vis. 13, 1842-1850). Retinal stem cells from adult wt and rd1 mice were isolated from the ciliary epithelium after treatment with 2 mg/ml dispase (20 min) followed by 1.33 mg/ml trypsin 0.67 mg/ml, hyaluronidase and 0.13 mg/ml kynurenic acid (10 min) and cultured for a week in serum free medium containing 20 ng/ml basic FGF, 2 μg/ml heparin, 0.6% glucose, N2 hormone mix in DMEM-F12 to form neurospheres (Giordano et al., 2007, supra). Retinal neurospheres were then plated on glass slides coated with extracellular matrix (ECM, Sigma) in DMEM-F12 supplemented with 20 ng/ml FGF for 4 days. […] Cell death was evaluated by staining of cells for 2 minutes with 2 μM Ethidium homodimer and counterstaining of nuclei with DAPI (4′,6-diamidino-2-phenylindole, Sigma). Slides were mounted with mowioll 4-88 (Sigma) and analysed at a Zeiss Axioskop 40 fluorescence microscope. Ethidium homodimer positive cells were counted in each slide and expressed as percentages of the total number of cells (DAPI stained) per slide. […]

[13] = tested on: wild-type (wt) photoreceptor-like cells; experiment: Primary retinal cell culture, wild-type; assay type: cell-based, mouse; settings: up to the highest concentration used, 50 μM
Description: as §2

[14] = tested on: organotypic rd1 retinal explant cultures; experiment: Organotypic retinal explant culture, rd1; assay type: cell-based, mouse
Description: (§3) For biochemical analyses and comparisons between models and wt tissues, we typically use material from ages corresponding to the onset of retinal degeneration. Retinal tissue is obtained from post-natal day 5 (PN5) animals, from which, after sacrifice, the eyes are enucleated and retinae cultured as retinal explants. In brief, the retina with the retinal pigment epithelium (RPE) still attached is isolated and subsequently transferred to Millicell culture dish filter inserts (Millipore AB, Solna, Sweden; PIHA03050), with the RPE layer facing the culturing membrane. The explants are then incubated in custom made R16 nutrient medium at 37° C. The nutrient medium has a volume of 1.5 ml per dish, which is replaced with fresh medium usually every second day (unless the exact culturing paradigm requires otherwise) during the culturing period.
(§4) PN5 explants were allowed to adjust to culture conditions for two days in vitro (DIV), after which they were subjected to treatments of interest. […]
(§5) In both cases the results were captured by means of a microscope and digital camera, analysed manually or semi-automatically, and this was then followed by calculations for statistical significance of the recorded data in principle as published previously (Arango-Gonzalez et al. 2014, PLoS One. 9, e112142).

[15] = tested on: wt explant cultures; experiment: Organotypic retinal explant culture, wt; assay type: cell-based, mouse; settings: up to 50 μM
Description: as §3, §4, §5

[16] = tested on: retinal explants of rd10 model; experiment: Organotypic retinal explant culture, rd10; assay type: cell-based, mouse; settings: data not shown
Description: as §3, §4, §5

[17] = tested on: retinal explants of rd2 mouse model; experiment: Organotypic retinal explant culture, rd2; assay type: cell-based; settings: data not shown
Description: as §3, §4, §5

[18] = tested on: rd1 mice; experiment: In vivo retinitis pigmentosa model, rd1 mouse; settings: PN14, intraperitoneal 50 mg/kg once per day, vs untreated rd1
Description: Before treatment with drug or drug/DDS combinations, the animals were anesthetized with diethyl-ether. For systemic treatment, 0.9% NaCl solution containing liposomal DDS/drug formulation were injected either into the tail vein (caudal vein; intravenous; i.v.; 50 μl) or into the peritoneum (intraperitoneal; i.p.; 200 μl) of the anesthetized animal. In rd10 mice, a local intravitreal (IVT) treatment was also tested. Here, the animals received a 0.5 μl injection into the vitreous body of one eye, while the other eye was kept as untreated, contralateral control. For both i.p. and IVT treatments a liposomal formulation not containing DF003 (i.e. “empty” liposomes) was used as an additional control.
The in vivo treatment was performed initially on rd1 animals, but later extended to other animal models (rd2, rd10, cpfl1, Rho P23H). […]
At various post-treatment time-points (see Table 1), in vivo optic coherence tomography (OCT) and scanning laser ophthalmoscopy (SLO) analysis was used for direct, non-invasive imaging of retinal morphology (OCT) and of fluorescently labelled drugs (SLO) or drug/DDS combinations to determine the distribution and uptake of drug in the retina. In addition, retinal function was assessed using electroretinographic (ERG) recordings. […]

[19] = Pharmacokinetic study in adult rats; settings: rat, blood, 20 mg/kg, single injection 20 mg/kg, read-out: in vivo half-life
Description: A pharmacokinetic study was performed in adult rats (3 months old) that received a single injection of either free DF003 or LP-DF003 at an initial dose of 20 mg/kg.

[20] = tested on: rd1 and rd2 photoreceptors; settings: in vitro and in vivo mouse retinitis pigmentosa models; cited from earlier work

PKG2, sequence (Q13237 whole entry): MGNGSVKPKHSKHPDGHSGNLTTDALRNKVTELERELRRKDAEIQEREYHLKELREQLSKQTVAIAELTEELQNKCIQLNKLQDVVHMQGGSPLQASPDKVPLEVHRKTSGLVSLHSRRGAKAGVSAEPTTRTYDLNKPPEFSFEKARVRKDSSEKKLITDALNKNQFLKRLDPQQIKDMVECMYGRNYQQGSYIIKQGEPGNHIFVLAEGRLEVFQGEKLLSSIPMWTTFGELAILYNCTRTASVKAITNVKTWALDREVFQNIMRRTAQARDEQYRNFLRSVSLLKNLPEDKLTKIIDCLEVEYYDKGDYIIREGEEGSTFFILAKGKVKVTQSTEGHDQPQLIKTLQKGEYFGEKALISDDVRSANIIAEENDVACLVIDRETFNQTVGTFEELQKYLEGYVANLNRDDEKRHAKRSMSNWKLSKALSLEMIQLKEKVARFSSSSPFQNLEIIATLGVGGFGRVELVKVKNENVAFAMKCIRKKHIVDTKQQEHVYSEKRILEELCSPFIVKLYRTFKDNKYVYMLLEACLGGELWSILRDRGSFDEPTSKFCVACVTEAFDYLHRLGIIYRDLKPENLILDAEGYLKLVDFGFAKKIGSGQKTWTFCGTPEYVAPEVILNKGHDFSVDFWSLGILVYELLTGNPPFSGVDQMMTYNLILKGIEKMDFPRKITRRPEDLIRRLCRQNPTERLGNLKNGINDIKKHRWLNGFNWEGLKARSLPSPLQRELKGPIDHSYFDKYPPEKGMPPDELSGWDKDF
PDE2, sequence (O00408 whole entry): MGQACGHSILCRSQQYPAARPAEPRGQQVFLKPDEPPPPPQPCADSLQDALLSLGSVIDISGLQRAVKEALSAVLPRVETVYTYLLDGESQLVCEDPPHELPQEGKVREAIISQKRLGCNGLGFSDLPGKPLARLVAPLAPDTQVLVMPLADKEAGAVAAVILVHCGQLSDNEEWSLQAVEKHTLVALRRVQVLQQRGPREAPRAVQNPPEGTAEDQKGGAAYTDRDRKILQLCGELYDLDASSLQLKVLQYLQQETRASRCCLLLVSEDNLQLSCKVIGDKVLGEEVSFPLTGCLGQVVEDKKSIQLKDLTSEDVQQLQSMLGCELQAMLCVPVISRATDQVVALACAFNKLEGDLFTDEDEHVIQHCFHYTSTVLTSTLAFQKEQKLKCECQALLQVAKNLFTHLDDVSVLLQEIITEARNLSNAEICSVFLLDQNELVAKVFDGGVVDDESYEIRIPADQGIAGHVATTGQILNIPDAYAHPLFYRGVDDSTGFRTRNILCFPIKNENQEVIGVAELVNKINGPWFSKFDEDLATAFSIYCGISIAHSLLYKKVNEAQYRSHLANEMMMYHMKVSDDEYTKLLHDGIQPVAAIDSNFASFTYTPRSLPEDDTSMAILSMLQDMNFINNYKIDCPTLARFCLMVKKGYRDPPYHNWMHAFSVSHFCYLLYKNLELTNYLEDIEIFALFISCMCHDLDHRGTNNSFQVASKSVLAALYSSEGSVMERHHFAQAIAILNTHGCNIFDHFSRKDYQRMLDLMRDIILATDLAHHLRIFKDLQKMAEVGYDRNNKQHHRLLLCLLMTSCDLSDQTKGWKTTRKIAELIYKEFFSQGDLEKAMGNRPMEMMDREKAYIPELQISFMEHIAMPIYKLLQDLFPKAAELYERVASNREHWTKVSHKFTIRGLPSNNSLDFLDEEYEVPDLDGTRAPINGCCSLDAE
PKG1α, sequence (Q13976 whole entry, canonical isoform): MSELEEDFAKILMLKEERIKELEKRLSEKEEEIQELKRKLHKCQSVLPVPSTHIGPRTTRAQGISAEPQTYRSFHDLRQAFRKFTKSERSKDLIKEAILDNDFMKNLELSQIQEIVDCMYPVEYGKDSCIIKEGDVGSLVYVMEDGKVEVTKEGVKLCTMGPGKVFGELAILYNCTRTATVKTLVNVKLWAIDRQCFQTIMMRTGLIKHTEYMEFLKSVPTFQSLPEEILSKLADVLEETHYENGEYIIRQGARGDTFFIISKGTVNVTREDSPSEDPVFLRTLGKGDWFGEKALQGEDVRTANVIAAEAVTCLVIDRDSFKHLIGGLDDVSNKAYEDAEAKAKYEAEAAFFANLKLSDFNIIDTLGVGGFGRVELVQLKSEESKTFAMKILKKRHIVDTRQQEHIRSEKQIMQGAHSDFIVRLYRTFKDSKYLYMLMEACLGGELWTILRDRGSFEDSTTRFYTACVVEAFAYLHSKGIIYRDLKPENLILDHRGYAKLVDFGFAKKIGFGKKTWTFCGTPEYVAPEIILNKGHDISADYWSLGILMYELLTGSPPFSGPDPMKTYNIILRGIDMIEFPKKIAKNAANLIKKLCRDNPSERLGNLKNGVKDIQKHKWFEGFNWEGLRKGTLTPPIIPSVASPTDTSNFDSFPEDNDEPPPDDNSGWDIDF
PKG1β, sequence (Q13976 1-686 isoform Q13976-2): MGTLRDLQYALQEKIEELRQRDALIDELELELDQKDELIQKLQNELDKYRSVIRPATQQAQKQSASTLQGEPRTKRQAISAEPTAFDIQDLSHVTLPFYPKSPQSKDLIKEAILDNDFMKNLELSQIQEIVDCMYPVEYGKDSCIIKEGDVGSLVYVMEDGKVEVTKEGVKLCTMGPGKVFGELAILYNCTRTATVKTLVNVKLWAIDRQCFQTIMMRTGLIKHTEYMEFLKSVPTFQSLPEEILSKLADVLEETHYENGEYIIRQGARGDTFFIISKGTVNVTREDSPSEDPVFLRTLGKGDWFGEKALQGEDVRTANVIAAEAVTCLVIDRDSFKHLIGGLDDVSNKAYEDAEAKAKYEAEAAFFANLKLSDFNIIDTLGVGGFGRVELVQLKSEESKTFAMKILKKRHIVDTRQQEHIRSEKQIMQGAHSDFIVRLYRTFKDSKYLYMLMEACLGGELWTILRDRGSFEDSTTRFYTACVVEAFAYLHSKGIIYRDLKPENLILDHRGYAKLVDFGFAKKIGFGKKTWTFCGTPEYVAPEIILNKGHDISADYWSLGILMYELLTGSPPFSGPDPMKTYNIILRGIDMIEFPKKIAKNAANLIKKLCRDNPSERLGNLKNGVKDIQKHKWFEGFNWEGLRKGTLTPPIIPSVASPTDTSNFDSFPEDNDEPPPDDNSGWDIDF
PDE10, sequence (Q9Y233 whole entry): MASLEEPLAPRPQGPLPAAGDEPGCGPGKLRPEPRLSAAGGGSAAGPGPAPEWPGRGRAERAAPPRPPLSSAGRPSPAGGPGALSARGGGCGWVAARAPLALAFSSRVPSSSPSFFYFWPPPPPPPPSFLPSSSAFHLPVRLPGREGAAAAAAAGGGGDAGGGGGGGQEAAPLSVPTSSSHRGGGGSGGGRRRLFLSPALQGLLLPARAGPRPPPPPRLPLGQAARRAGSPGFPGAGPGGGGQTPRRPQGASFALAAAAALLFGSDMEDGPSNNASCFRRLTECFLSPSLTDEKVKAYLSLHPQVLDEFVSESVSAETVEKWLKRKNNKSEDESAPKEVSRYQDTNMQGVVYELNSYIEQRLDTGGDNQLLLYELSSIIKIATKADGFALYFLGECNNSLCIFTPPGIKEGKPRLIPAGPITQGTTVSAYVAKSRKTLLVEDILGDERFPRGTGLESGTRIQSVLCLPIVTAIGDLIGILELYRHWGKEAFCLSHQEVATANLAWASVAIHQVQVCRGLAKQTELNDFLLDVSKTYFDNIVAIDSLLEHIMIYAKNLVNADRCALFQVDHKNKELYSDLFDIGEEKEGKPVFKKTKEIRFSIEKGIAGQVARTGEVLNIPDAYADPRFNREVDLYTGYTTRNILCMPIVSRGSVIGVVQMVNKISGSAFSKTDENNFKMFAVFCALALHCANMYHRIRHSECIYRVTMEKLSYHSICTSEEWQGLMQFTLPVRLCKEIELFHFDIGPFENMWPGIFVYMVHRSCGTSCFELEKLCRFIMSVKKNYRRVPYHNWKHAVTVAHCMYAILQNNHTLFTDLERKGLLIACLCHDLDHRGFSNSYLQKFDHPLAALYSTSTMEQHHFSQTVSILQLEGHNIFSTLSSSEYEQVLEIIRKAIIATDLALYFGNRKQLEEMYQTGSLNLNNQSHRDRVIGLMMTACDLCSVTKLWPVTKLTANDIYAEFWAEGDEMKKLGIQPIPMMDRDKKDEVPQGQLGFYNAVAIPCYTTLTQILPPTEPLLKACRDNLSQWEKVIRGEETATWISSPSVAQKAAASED
PDE1B, sequence (Q01064 whole entry, species assumed): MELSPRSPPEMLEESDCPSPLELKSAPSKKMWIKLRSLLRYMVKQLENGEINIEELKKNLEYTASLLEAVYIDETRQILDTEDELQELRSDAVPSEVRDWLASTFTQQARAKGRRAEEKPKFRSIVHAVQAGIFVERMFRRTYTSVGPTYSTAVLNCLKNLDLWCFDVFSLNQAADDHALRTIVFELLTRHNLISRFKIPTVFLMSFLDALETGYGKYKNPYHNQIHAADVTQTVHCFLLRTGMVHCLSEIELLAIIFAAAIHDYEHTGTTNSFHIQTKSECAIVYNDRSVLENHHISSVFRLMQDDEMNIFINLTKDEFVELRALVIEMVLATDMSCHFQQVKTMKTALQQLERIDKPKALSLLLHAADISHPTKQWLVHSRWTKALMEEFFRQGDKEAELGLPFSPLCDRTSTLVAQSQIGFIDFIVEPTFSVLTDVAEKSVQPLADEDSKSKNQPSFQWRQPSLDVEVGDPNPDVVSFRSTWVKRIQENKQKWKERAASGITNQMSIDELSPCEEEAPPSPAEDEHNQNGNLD

## O=c1c2nc(Br)n(C3OC4COP(O)(=S)OC4C3O)c2nc2[nH]c(-c3ccccc3)cn12 [DF003, Sodium, 3-[(4 aR,6R,7R,7aS)-7-hydroxy-2-oxido-2-sulfanylidene-4a,6,7,7a-tetrahydro-4H-furo [3,2-d] [1,3,2]dioxaphosphinin-6-yl]-2-bromo-6-phenyl-5H-imidazo [1,2-a] purin-9-one]
[1]
  Ki: 35 nM
[2]
  Ki: 30 nM
[3]
  IC50: 900 nM
  Ki: 450 nM
[4]
  IC50: 25000 nM
[4]; CNGC and PKA1/PKA2 versus PKG isoforms
  inhibitory constants for CNGC and PKA isoforms 1 and 2 higher than those for PKG isoforms: 2-3 log units
[5]
  Ki: > 50000 nM
[6]
  Ki: 11000 nM
[7]
  Ki: 2500 nM
[8]
  Ki: 800 nM
[9]
  Ki: 8100 nM
[10]
  Ki: 4100 nM
[11]
  Ki: 5000 nM
[12]; LP-DF003 dose expressed as corresponding DF003 concentration
  lowest concentration that still reduced the death of rd1 photoreceptor-like cells: 100 nM
[12]; cell culture, FIG. 1A
  protective effect on rd1 photoreceptor-like cells: preserved the viability
[13]
  effect on wild-type photoreceptor-like cells (toxicity): not affected
[14]; FIG. 1B
  photoreceptor death in rd1 retinal explants: reduced photoreceptor death; also recorded: preserved the viability
[14]; organotypic retinal explants, data not shown
  toxicity in the inner retina: no evidence of DF003 toxicity
[15]
  toxicity in wt retinal explants: no signs of toxicity; also recorded: not affected
[16]
  photoreceptor death in rd10 retinal explants: prevented photoreceptor death
[17]
  photoreceptor death in rd2 retinal explants: prevented photoreceptor death
[18]
  rd1 photoreceptor survival: did not show any improvement; also recorded: had no effect
[19]
  half-life: ~15 min

## Nc1nc2c(nc(Br)n2[C@@H]2O[C@@H]3COP(O)(=S)O[C@H]3[C@H]2O)c(=O)[nH]1 (stereo partly drawn) [Rp-8-Br-cGMPS]
[20]
  protection of rd1 and rd2 photoreceptors: some protection
